{"source": "paper PMC12566971", "about": "“Polyprenylated Acylphloroglucinols from Hypericum rochelii and Hypericum olympicum—Cytotoxic Effects on Non-Tumorigenic Cell Lines and Antibacterial Potential” (Pharmaceuticals, 2025)", "key": {"CCL-1": {"system": "CCL-1", "assay": "MTT assay for cytotoxicity", "format": "cell-based, murine", "method": "(§1) The MTT assay was performed according to Annex C, ISO 10993-5 [56] as in [116]. The panel of non-tumorigenic cell lines consisted of one murine (CCL-1 fibroblasts, which are recommended as a standard for cytotoxicity evaluation in Annex C of ISO 10993-5 [56]) and four human cell lines—HaCaT (immortalized epidermal keratinocytes), HGF (gingival fibroblasts), HEK-293 (embryonic cells from kidney epithelium), and HEPG2 (hepatoblastoma). Although technically a cancer cell line, HEPG2 is non-tumorigenic and retains many hepatocyte-related features in its proteome and a high degree of morphological and functional differentiation, also being a stage one hepatoblastoma.\n(§2) CCL-1 was purchased from ATCC and HaCaT and HGF were bought from CLS Cell Lines Service (GmbH, Eppelheim, Germany). HEK-293 and HEPG2 were obtained from DSMZ. The cell culture medium for HaCaT and HEPG2 was Dulbecco’s Modified Eagle Medium (DMEM) with 4.5 g/L glucose (DMEM-HA). For HGF it was DMEM/F-12 (DMEM-12-A, a 1:1 mixture of DMEM and Ham’s F-12 medium). The cell medium for CCL-1 and HEK-293 was Eagle’s Minimum Essential Medium (MEM) (MEM-A). Ten percent heat-inactivated fetal bovine serum (FBS) was added to all media but to the one for the CCL-1 cells, to which 10% heat-inactivated horse serum was added. All media were supplemented with 2 mM L-glutamine and Penicillin/Streptomycin (Pen/Strep, 100×). The cell culture media, sera, and additives were from Capricorn Scientific (Düsseldorf, Germany).\n(§3) GraphPad Prism software version 9 (GraphPad Software Inc., San Diego, CA, USA) was used to calculate the IC50 values from the MTT assays as in [116], as well as the MTC values, and the ELISA standard curves. The MTC values are, according to ISO 10993-5, the maximum concentration at which at least 70% of the cells are viable (nonlin fit, range)."}, "rabbit skin": {"system": "rabbit skin", "settings": "in vivo", "method": "Dermal toxicological screening of the chosen two non-toxic active substances was performed on animals. This was carried out according to the European standard ISO 10993-10: 2010 (E): Biological evaluation of medical devices, Part 10 Skin irritation and sensitization tests (6. […] The animal study protocol was approved by the opinion No. 148 of 09.04.2019 of the Ethics Committee of the Bulgarian Food Safety Agency of the Ministry of Agriculture, Food, and Forestry. The Permit to work with experimental rabbits No. 232 was valid until 11.04.2024 and issued on the basis of Article 155, paragraph 7, of the Veterinary Medical Activity Act. The albino rabbits were cared for as specified in ISO 10993-2 (withdrawn; superseded by ISO 10993-2:2022) and Ordinance No. 20 (State Gazette of Bulgaria, No. 87, 9 November 2012). Four square test sites were made on the back of the rabbit by clipping the fur. The samples were applied to 2 of them, while the other 2 were used as a positive control (10–20% SDS) and a negative control (the buffer in which the agents were diluted, i.e., PBS). The exposure time was 4 h, and at the end of it the appearance was checked for erythema (redness) and edema. Additional inspections were performed at hours 24, 48, and 72."}, "HaCaT": {"system": "HaCaT", "assay": "MTT assay for cytotoxicity", "format": "cell-based, human", "settings": "for IC50: Homo sapiens, HaCaT", "method": "as §1, §2, §3"}, "HEPG2": {"system": "HEPG2", "assay": "MTT assay for cytotoxicity", "format": "cell-based, human", "settings": "for IC50: Homo sapiens, HepG2", "method": "as §1, §2, §3"}, "S. aureus biofilm": {"system": "S. aureus biofilm", "assay": "Biofilm assay", "format": "cell-based, Staphylococcus aureus", "method": "The biofilm assay was performed according to the protocol of Stepanović [138], as already described."}, "[1]": {"settings": "at least 70% of cells viable, ISO 10993-5"}}, "note": "Several values for one entry are separate records, joined by “and”; a condition that tells them apart may be missing. Equal entries are not always repeated."}
{"smiles": "CC(C)=CCCC1(C)C(CC=C(C)C)CC2C(=O)C1(C(=O)C(C)C)C(=O)C(CC=C(C)C)=C2O", "note": "(centres unmarked) [Olympiforin B]", "values": [{"measurement": "IC50", "setting": "CCL-1; Mus musculus, MTT assay", "value": 5.5, "unit": "µg/mL"}, {"measurement": "Maximum tolerated concentration (MTC), CCL-1", "setting": "CCL-1; [1]", "value": 4.79, "unit": "µg/mL"}, {"measurement": "Skin irritation on rabbits", "setting": "rabbit skin", "value": "do not cause skin toxicity"}, {"measurement": "IC50", "setting": "HaCaT; MTT assay", "value": 1.71, "unit": "µg/mL"}, {"measurement": "IC50", "setting": "HaCaT; converted to µM", "value": 3.65, "unit": "µM"}, {"measurement": "Maximum tolerated concentration (MTC), HaCaT", "setting": "HaCaT; concentration at which at least 70% of cells are viable, ISO 10993-5", "value": 0.52, "unit": "µg/mL"}, {"measurement": "IC50", "setting": "HEPG2; MTT assay", "value": 4.5, "unit": "µg/mL"}, {"measurement": "IC50", "setting": "HEPG2; converted to µM", "value": 9.6, "unit": "µM"}, {"measurement": "Maximum tolerated concentration (MTC), HEPG2", "setting": "HEPG2; [1]", "value": 1.54, "unit": "µg/mL"}, {"measurement": "IC50", "setting": "S. aureus biofilm; Staphylococcus aureus, read-out: Median Biofilm Inhibitory Concentration (MBIC50), S. aureus", "value": "0.07 µg/mL and 150 nM"}, {"measurement": "Minimum Biofilm Inhibitory Concentration (MBIC), S. aureus", "setting": "S. aureus biofilm; no visible biofilm", "value": "1 (MIC) µg/mL"}]}
